Reference: patent US6951651B2, “CTL epitope analogs” (priority 1999, dated 2005)
Ends that are not written are not given here.

Tests used:
T cell clone 3-3F4 = experiment: Chromium release assay, peptide-sensitized targets lysed by T cell clone 3-3F4; format: cell-based, human; settings: for Conc. (nM): concentration of peptide in which specific killing was between 15 and 30 percent: HLA A*0201-restricted EBVLCL targets, 3-3F4 effectors, E:T=5, 10-fold dilutions 500-0.00005 nM; for recognition by T cell clone 3-3F4 (in words): chromium release assay; for Peptide Concentration (nM), Free Acid, 3-3F4 / Peptide Concentration (nM), Amide, 3-3F4: chromium release, T cell clone 3-3F4; for Peptide Concentration (nM), Amide, 3-3F4: carboxyl terminal amide peptide
Protocol: Nonamer peptides with the substitutions as shown at each position were synthesized as described in Example 1. […] Results of these assays are shown in the right-hand column of Table II, in terms of concentration of peptide (nM) in which specific killing was between 15 and 30 percent. Results presented are the average from at least three independent experiments carried out on different days using different batches of T cell […]. Peptides were tested using 10-fold dilutions, ranging from 500-0.00005 nM.
(§1) To take advantage of the increased immunogenicity of peptides 44 and 46, while maintaining the universal recognition of the native peptide, library-directed changes were made to peptides 44 and 46, substituting back the native amino acids. A series of 21 peptides were constructed based upon the sequence of the tetra-substituted peptides 44 and 46 in each of the carboxyl terminal amidated and free acid forms. The peptides contained single, double, or triple substitutions of amino acids of the native sequence at the positions indicated. These peptides were assayed utilizing a standard chromium release assay with the screening T cell clone, 3-3F4, and a representative T cell clone (VB57) from another individual expressing a different T cell receptor.

T cell clone VB57 = experiment: Chromium release assay, peptide-sensitized targets lysed by T cell clone VB57; format: cell-based, human; settings: for Peptide Concentration (nM), Amide, VB57: carboxyl terminal amide peptide
Excerpt: as §1

Substance	Conc. (nM): concentration of peptide in which specific killing was between 15 and 30 percent (T cell clone 3-3F4)	Peptide Concentration (nM), Free Acid, 3-3F4 (T cell clone 3-3F4)	Peptide Concentration (nM), Amide, 3-3F4 (T cell clone 3-3F4)	Peptide Concentration (nM), Amide, VB57 (T cell clone VB57)	further results
45N: nonamer YLLPMVVPV amide, SEQ ID NO 28 (YLLPMVVPV-NH2) [Peptide 45N]	>500 nM	–	–	–	recognition by T cell clone 3-3F4 (in words) (T cell clone 3-3F4): less active than the native sequence
47N: nonamer YLLPMVTPV amide, SEQ ID NO 23 (YLLPMVTPV-NH2) [Peptide 47N]	500 nM	–	–	–	recognition by T cell clone 3-3F4 (in words) (T cell clone 3-3F4): less active than the native sequence
48N: nonamer YLLPYVVSV amide, SEQ ID NO 29 (YLLPYVVSV-NH2) [Peptide 48N]	>500 nM	–	–	–	–
49N: nonamer YLLPYVVPV amide, SEQ ID NO 30 (YLLPYVVPV-NH2) [Peptide 49N]	>500 nM	–	–	–	–
50N: nonamer YLLPYVTSV amide, SEQ ID NO 31 (YLLPYVTSV-NH2) [Peptide 50N]	>500 nM	–	–	–	–
51N: nonamer YLLPYVTPV amide, SEQ ID NO 32 (YLLPYVTPV-NH2) [Peptide 51N]	>500 nM	–	–	–	–
52N: nonamer YLLWMVVSV amide, SEQ ID NO 24 (YLLWMVVSV-NH2) [Peptide 52N]	500 nM	–	–	–	–
53N: nonamer YLLWMVVPV amide, SEQ ID NO 25 (YLLWMVVPV-NH2) [Peptide 53N]	500 nM	–	–	–	–
54N: nonamer YLLWMVTSV amide, SEQ ID NO 21 (YLLWMVTSV-NH2) [Peptide 54N]	0.5 nM	–	–	–	–
55N: nonamer YLLWMVTPV amide, SEQ ID NO 26 (YLLWMVTPV-NH2) [Peptide 55N]	500 nM	–	–	–	–
56N: nonamer YLLWYVVSV amide, SEQ ID NO 22 (YLLWYVVSV-NH2) [Peptide 56N]	50 nM	–	–	–	–
57N: nonamer YLLWYVVPV amide, SEQ ID NO 33 (YLLWYVVPV-NH2) [Peptide 57N]	>500 nM	–	–	–	–
58N: nonamer YLLWYVTSV amide, SEQ ID NO 27 (YLLWYVTSV-NH2) [Peptide 58N]	500 nM	–	–	–	–
59N: nonamer YLLWYVTPV amide, SEQ ID NO 34 (YLLWYVTPV-NH2) [Peptide 59N]	>500 nM	–	–	–	–
110C: nonamer NLVPMVVTV, SEQ ID NO 42 (NLVPMVVTV-OH) [Peptide 110C]	–	0.5 nM	–	–	–
110N: nonamer NLVPMVVTV amide, SEQ ID NO 41 (NLVPMVVTV-NH2) [Peptide 110N]	–	–	0.05 nM	>5 nM	–
111C: nonamer NLVPMVTTV, SEQ ID NO 44 (HCMV vaccine peptide) [Peptide 111C]	–	0.05 nM	–	–	recognition by T cell clone 3-3F4 (in words) (T cell clone 3-3F4): equivalent to its amidated counterpart; Peptide Concentration (nM), Free Acid, VB57 (T cell clone VB57): 5 nM
111N: nonamer NLVPMVTTV amide, SEQ ID NO 43 (NLVPMVTTV-NH2) [Peptide 111N]	–	–	0.05 nM	>5 nM	–
112C: nonamer NLVPMVASV, SEQ ID NO 46 (NLVPMVASV-OH) [Peptide 112C]	–	5 nM	–	–	Peptide Concentration (nM), Free Acid, VB57 (T cell clone VB57): 0.5 nM
112N: nonamer NLVPMVASV amide, SEQ ID NO 45 (NLVPMVASV-NH2) [Peptide 112N]	–	–	0.5 nM	0.5 nM	–
113C: nonamer YLVPMVVTV, SEQ ID NO 60 (YLVPMVVTV-OH) [Peptide 113C]	–	>5 nM	–	–	–
113N: nonamer YLVPMVVTV amide, SEQ ID NO 59 (YLVPMVVTV-NH2) [Peptide 113N]	–	–	0.5 nM	>5 nM	–
114C: nonamer YLVPMVTTV, SEQ ID NO 62 (YLVPMVTTV-OH) [Peptide 114C]	–	0.5 nM	–	–	Peptide Concentration (nM), Free Acid, VB57 (T cell clone VB57): 5 nM
114N: nonamer YLVPMVTTV amide, SEQ ID NO 61 (YLVPMVTTV-NH2) [Peptide 114N]	–	–	0.05 nM	5 nM	–
116C: nonamer NLLPMVVTV, SEQ ID NO 48 (NLLPMVVTV-OH) [Peptide 116C]	–	>5 nM	–	–	–

Substance	Conc. (nM): concentration of peptide in which specific killing was between 15 and 30 percent (T cell clone 3-3F4)	Peptide Concentration (nM), Free Acid, 3-3F4 (T cell clone 3-3F4)	Peptide Concentration (nM), Amide, 3-3F4 (T cell clone 3-3F4)	Peptide Concentration (nM), Amide, VB57 (T cell clone VB57)	further results
116N: nonamer NLLPMVVTV amide, SEQ ID NO 47 (NLLPMVVTV-NH2) [Peptide 116N]	–	–	0.5 nM	>5 nM	–
117C: nonamer NLLPMVTTV, SEQ ID NO 50 (NLLPMVTTV-OH) [Peptide 117C]	–	0.5 nM	–	–	Peptide Concentration (nM), Free Acid, VB57 (T cell clone VB57): 5 nM
117N: nonamer NLLPMVTTV amide, SEQ ID NO 49 (NLLPMVTTV-NH2) [Peptide 117N]	–	–	0.05 nM	>5 nM	–
119C: nonamer NLVPMVVSV, SEQ ID NO 54 (NLVPMVVSV-OH) [Peptide 119C]	–	>5 nM	–	–	Peptide Concentration (nM), Free Acid, VB57 (T cell clone VB57): >5 nM
119N: nonamer NLVPMVVSV amide, SEQ ID NO 53 (NLVPMVVSV-NH2) [Peptide 119N]	–	–	0.005 nM	>5 nM	–
120C: nonamer NLVPMVTSV, SEQ ID NO 56 (NLVPMVTSV-OH) [Peptide 120C]	–	5 nM	–	–	Peptide Concentration (nM), Free Acid, VB57 (T cell clone VB57): >5 nM
120N: nonamer NLVPMVTSV amide, SEQ ID NO 55 (NLVPMVTSV-NH2) [Peptide 120N]	–	–	0.05 nM	>5 nM	–
121C: nonamer YLLPMVVTV, SEQ ID NO 74 (YLLPMVVTV-OH) [Peptide 121C]	–	>5 nM	–	–	–
121N: nonamer YLLPMVVTV amide, SEQ ID NO 73 (YLLPMVVTV-NH2) [Peptide 121N]	–	–	5 nM	>5 nM	–
122C: nonamer YLLPMVTTV, SEQ ID NO 76 (YLLPMVTTV-OH) [Peptide 122C]	–	>5 nM	–	–	Peptide Concentration (nM), Free Acid, VB57 (T cell clone VB57): >5 nM
122N: nonamer YLLPMVTTV amide, SEQ ID NO 75 (YLLPMVTTV-NH2) [Peptide 122N]	–	–	5 nM	>5 nM	–
123C: nonamer YLLPMVASV, SEQ ID NO 78 (YLLPMVASV-OH) [Peptide 123C]	–	>5 nM	–	–	Peptide Concentration (nM), Free Acid, VB57 (T cell clone VB57): >5 nM
123N: nonamer YLLPMVASV amide, SEQ ID NO 77 (YLLPMVASV-NH2) [Peptide 123N]	–	–	0.05 nM	0.5 nM	–
124C: nonamer YLVPMVVSV, SEQ ID NO 70 (YLVPMVVSV-OH) [Peptide 124C]	–	>5 nM	–	–	Peptide Concentration (nM), Free Acid, VB57 (T cell clone VB57): >5 nM
124N: nonamer YLVPMVVSV amide, SEQ ID NO 69 (YLVPMVVSV-NH2) [Peptide 124N]	–	–	0.5 nM	5 nM	–
125C: nonamer YLVPMVTSV, SEQ ID NO 72 (YLVPMVTSV-OH) [Peptide 125C]	–	>5 nM	–	–	Peptide Concentration (nM), Free Acid, VB57 (T cell clone VB57): >5 nM
125N: nonamer YLVPMVTSV amide, SEQ ID NO 71 (YLVPMVTSV-NH2) [Peptide 125N]	–	–	0.05 nM	>5 nM	–
126C: nonamer NLLPMVVSV, SEQ ID NO 66 (NLLPMVVSV-OH) [Peptide 126C]	–	5 nM	–	–	Peptide Concentration (nM), Free Acid, VB57 (T cell clone VB57): >5 nM
126N: nonamer NLLPMVVSV amide, SEQ ID NO 65 (NLLPMVVSV-NH2) [Peptide 126N]	–	–	0.005 nM	0.5 nM	–
127C: nonamer NLLPMVTSV, SEQ ID NO 68 (NLLPMVTSV-OH) [Peptide 127C]	–	5 nM	–	–	Peptide Concentration (nM), Free Acid, VB57 (T cell clone VB57): >5 nM
127N: nonamer NLLPMVTSV amide, SEQ ID NO 67 (NLLPMVTSV-NH2) [Peptide 127N]	–	–	0.05 nM	>5 nM	–
194C: nonamer NLLPMVATV, SEQ ID NO 40 (NLLPMVATV-OH) [Peptide 194C]	–	>5 nM	–	–	Peptide Concentration (nM), Free Acid, VB57 (T cell clone VB57): >5 nM
194N: nonamer NLLPMVATV amide, SEQ ID NO 39 (NLLPMVATV-NH2) [Peptide 194N]	–	–	0.05 nM	0.5 nM	–
A7N: native sequence NLVPMVATV with amidated carboxyl terminus, SEQ ID NO 18 (NLVPMVATV-NH2) [Peptide A7N]	0.5 nM	–	–	–	–
